Values of other authors, collected in patent US20220304959A1, “TREATMENT OF LONG HAULERS SYNDROME WITH NICLOSAMIDE” (First Wave BioPharma, priority 2021, published 2022).

O=C(Nc1ccc([N+](=O)[O-])cc1Cl)c1cc(Cl)ccc1O [niclosamide, 5-chloro-N-(2-chloro-4-nitrophenyl)-2-hydroxybenzamide]
Overall safety profile (administered to millions of people, including children): very good safety profile
Less frequently reported AEs: rash, oral irritation, fever, rectal bleeding, weakness, bad taste in mouth, sweating, palpitation, constipation, alopecia, oedema of an arm, backache, irritability (human use, literature reports): < 1%
Other reported AEs: vomiting; abdominal discomfort possibly associated with anorexia, diarrhea, drowsiness, dizziness and headache (human use, literature reports): 1-4 % of patients
